Values joined by “and” are separate entries in the source; they are usually repeats but may differ in a detail not shown here. Identical values can stand only once. Toxic doses and inconclusive results are not listed. The calls were made as follows: active = survival T/C of 150% or more; inactive = T/C below 125% in these data.
Test system: B6C3F1 mice, B16 melanoma ip, median survival T/C
Experiment: NCI In Vivo Anticancer Drug Screen. Data for tumor model B16 Melanoma (intraperitoneal) in B6C3F1 mice
Conditions: endpoint: median survival time, schedule: Q01DX009 (ip), higher = longer survival
Summary of the method: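 Antitumor effect was judged in mice with transplanted tumors by dividing the treated group's survival measure by that of vehicle controls.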

[1] = dose: 6.25 mg/kg/injection, vehicle: saline with Tween-80
[2] = dose: 12.5 mg/kg/injection, vehicle: saline with Tween-80
[3] = dose: 25.0 mg/kg/injection, vehicle: saline with Tween-80
[4] = dose: 50.0 mg/kg/injection, vehicle: saline with Tween-80
[5] = dose: 25.0 mg/kg/injection, vehicle: saline
[6] = dose: 50.0 mg/kg/injection, vehicle: saline
[7] = dose: 100.0 mg/kg/injection, vehicle: saline
[8] = dose: 200.0 mg/kg/injection, vehicle: saline
[9] = dose: 25.0 mg/kg/injection, vehicle: Klucel (hydroxypropylcellulose) (HPC)
[10] = dose: 50.0 mg/kg/injection, vehicle: Klucel (hydroxypropylcellulose) (HPC)
[11] = dose: 100.0 mg/kg/injection, vehicle: Klucel (hydroxypropylcellulose) (HPC)
[12] = dose: 100.0 mg/kg/injection, vehicle: saline with Tween-80

Measured: T/C

CC1(c2ccc(Cl)cc2)OC(=O)C(=Cc2ccc([N+](=O)[O-])s2)C(=O)O1 (centres undefined)
inactive: [1] 89 % of control | [2] 86 % of control | [3] 90 % of control | [4] 89 % of control

O=C1OC(=O)[C@H]2[C@@H]1[C@H]1C=C[C@@H]2OC1=O
inactive: dose: 12.5 mg/kg/injection, vehicle: saline 102 % of control | [5] 101 % of control | [6] 106 % of control | [7] 102 % of control | [8] 99 % of control

CC(C)NC(=O)N(CCCCBr)N=O
inactive: dose: 6.25 mg/kg/injection, vehicle: Klucel (hydroxypropylcellulose) (HPC) 98 % of control | dose: 12.0 mg/kg/injection, vehicle: Klucel (hydroxypropylcellulose) (HPC) 118 % of control | dose: 12.5 mg/kg/injection, vehicle: Klucel (hydroxypropylcellulose) (HPC) 98 % of control and 102 % of control | [9] 99 % of control and 102 % of control | [10] 116 % of control and 106 % of control | [11] 88 % of control and 96 % of control | dose: 200.0 mg/kg/injection, vehicle: Klucel (hydroxypropylcellulose) (HPC) 102 % of control

CCc1cccc(CC)c1-n1c(C)ccc1-c1ccccc1
inactive: [4] 100 % of control | [12] 107 % of control

OC(CN1CCCC2CCCCC21)c1cc2ccccc2c2ccccc12 (centres undefined)
inactive: [3] 100 % of control | [4] 100 % of control | [12] 96 % of control and 97 % of control

Cn1cc(C2NC(=O)c3ccccc3N2)c2ccccc21 (centres undefined)
inactive: [9] 109 % of control and 96 % of control | [10] 115 % of control and 106 % of control | [11] 123 % of control

c1ccc(-c2nn(-c3ccccc3)[n+](-c3ccccc3-c3ccccc3)n2)cc1
inactive: dose: 5.0 mg/kg/injection, vehicle: saline 108 % of control | dose: 10.0 mg/kg/injection, vehicle: saline 99 % of control | dose: 20.0 mg/kg/injection, vehicle: saline 101 % of control

CN(C)C=O
inactive: [5] 99 % of control | [6] 112 % of control and 100 % of control | [7] 88 % of control and 96 % of control | [8] 86 % of control and 93 % of control | dose: 400.0 mg/kg/injection, vehicle: saline 122 % of control and 98 % of control | dose: 800.0 mg/kg/injection, vehicle: saline 108 % of control and 122 % of control | dose: 1600.0 mg/kg/injection, vehicle: saline 116 % of control

N#CC(Br)(Br)C(N)=O
inactive: dose: 0.31 mg/kg/injection, vehicle: saline 96 % of control | dose: 1.25 mg/kg/injection, vehicle: saline 87 % of control | dose: 37.5 micrograms/kg/injection, vehicle: saline 98 % of control | dose: 75.0 micrograms/kg/injection, vehicle: saline 98 % of control | dose: 150.0 micrograms/kg/injection, vehicle: saline 96 % of control | dose: 300.0 micrograms/kg/injection, vehicle: saline 93 % of control

COc1ccc(C(=S)N2CCN(c3ccccc3)CC2)cc1
inactive: dose: 3.13 mg/kg/injection, vehicle: saline with Tween-80 98 % of control | [1] 91 % of control | [2] 93 % of control | [3] 101 % of control

Source: PubChem BioAssay AID200 (DTP/NCI, 2004)
